According to ChEMBL document CHEMBL4673364, “Synthesis and cytotoxic activity of new 7-acetoxy-12-amino-14-deoxy andrographolide analogues” (Bioorg Med Chem Lett, 2021):

How the values were obtained:
[1] = Cytotoxicity against rat ASK cells assessed as reduction in cell viability by SRB assay; type: functional, cell-based
[2] = Cytotoxicity against human K213 cells assessed as reduction in cell viability by SRB assay; type: functional, cell-based
[3] = Cytotoxicity against human K055 cells assessed as reduction in cell viability by SRB assay; type: functional, cell-based
HT-29 = experiment: Cytotoxicity against human HT-29 cells assessed as reduction in cell viability by SRB assay; type: functional, cell-based
A549 = experiment: Cytotoxicity against human A549 cells assessed as reduction in cell viability by SRB assay; type: functional, cell-based
KB = experiment: Cytotoxicity against human KB cells assessed as reduction in cell viability by SRB assay; type: functional, cell-based
[4] = Cytotoxicity against human P388 cells assessed as reduction in cell viability by SRB assay; type: functional, cell-based
MCF7 [5] = experiment: Cytotoxicity against human MCF7 cells assessed as reduction in cell viability by SRB assay; type: functional, cell-based
MCF7 [6] = experiment: Potency index, ratio of andrographolide IC50 to test compound IC50 for cytotoxicity against human MCF7 cells; type: functional

Compound | IC50 [1] [µM] | IC50 [2] [µM] | IC50 [3] [µM] | IC50 (HT-29) [µM] | IC50 (A549) [µM] | IC50 (KB) [µM] | IC50 [4] [µM] | IC50 (MCF7 [5]) [µM] | Ratio IC50 (MCF7 [6])
C=C1CC[C@@H]2[C@](C)(CO[Si](C)(C)C(C)(C)C)[C@H](OC(C)=O)CC[C@@]2(C)[C@@H]1C/C=C1/C(=O)OC[C@H]1OC(C)=O | 2.41 | 38.7 | 44.3 | 4.69 | 3.99 | 5.05 | 0.3 | 4.84 | 
C=C1[C@@H](OC(C)=O)C[C@@H]2[C@](C)(COC=O)[C@H](OC(C)=O)CC[C@@]2(C)[C@@H]1C[C@@H](Nc1ccccc1C(=O)O)C1=CCOC1=O | > 50 | 42.6 | 40.4 | 28.7 | 45.9 | 42.5 | 9.11 | 30.8 | 
C=C1[C@@H](OC(C)=O)C[C@@H]2[C@](C)(COC=O)[C@H](OC(C)=O)CC[C@@]2(C)[C@@H]1C[C@@H](Nc1ccc(F)cc1)C1=CCOC1=O | 38.6 | 30.2 | 25.8 | 20.5 | 21.2 | 22.9 | 6.31 | 12.4 | 
C=C1[C@@H](OC(C)=O)C[C@@H]2[C@](C)(COC=O)[C@H](OC(C)=O)CC[C@@]2(C)[C@@H]1C[C@@H](Nc1cccc2ccccc12)C1=CCOC1=O | > 50 | 31.3 | 28.8 | 8.67 | 35.6 | 32.3 | 6.49 | 9.75 | 
C=C1[C@@H](OC(C)=O)C[C@@H]2[C@](C)(COC=O)[C@H](OC(C)=O)CC[C@@]2(C)[C@@H]1C[C@@H](Nc1ccc(O)cc1)C1=CCOC1=O | 24.2 | 27.1 | 28.6 | 13.4 | 29.1 | 28.9 | 4.4 | 18.1 | 
C=C1[C@@H](OC(C)=O)C[C@@H]2[C@](C)(CO[Si](C)(C)C(C)(C)C)[C@H](OC(C)=O)CC[C@@]2(C)[C@@H]1C[C@@H](Nc1ccc(OC)c(OC)c1)C1=CCOC1=O | 4.95 | 5.15 | 5.73 | 5.33 | 4.87 | 5.8 | 4.53 | 4.31 | 
C=C1[C@@H](OC(C)=O)C[C@@H]2[C@](C)(CO[Si](C)(C)C(C)(C)C)[C@H](OC(C)=O)CC[C@@]2(C)[C@@H]1C[C@@H](Nc1ccc(C(=O)O)cc1)C1=CCOC1=O | 4.31 | 6.75 | 4.88 | 4.63 | 4.21 | 5.54 | 4.18 | 3.99 | 7
C=C1[C@@H](OC(C)=O)C[C@@H]2[C@](C)(COC=O)[C@H](OC(C)=O)CC[C@@]2(C)[C@@H]1C[C@@H](Nc1ccc(Br)cc1)C1=CCOC1=O | 49.9 | 25.4 | 24.4 | 13.2 | 15.8 | 24 | 4.95 | 11.4 | 
C=C1[C@@H](OC(C)=O)C[C@@H]2[C@](C)(COC=O)[C@H](OC(C)=O)CC[C@@]2(C)[C@@H]1C/C=C1/C(=O)OC[C@H]1OC(C)=O | 19.2 | 20.8 | 15.3 | 8.29 | 19 | 21.6 | 4.55 | 12.9 | 
C=C1[C@@H](OC(C)=O)C[C@@H]2[C@](C)(COC=O)[C@H](OC(C)=O)CC[C@@]2(C)[C@@H]1C[C@H](C1=CCOC1=O)N1CCOCC1 | 34.4 | 31.7 | 33.7 | 35.1 | > 50 | > 50 | 29.2 | 43.6 | 
C=C1[C@@H](OC(C)=O)C[C@@H]2[C@](C)(CO[Si](C)(C)C(C)(C)C)[C@H](OC(C)=O)CC[C@@]2(C)[C@@H]1C[C@@H](Nc1ccc(O)cc1)C1=CCOC1=O | 5 | 9.25 | 5.95 | 6.14 | 5.09 | 8.35 | 5.03 | 5.22 | 
C=C1[C@@H](C/C=C2/C(=O)OC[C@H]2OC(C)=O)[C@]2(C)CC[C@@H](OC(C)=O)[C@@](C)(CO[Si](C)(C)C(C)(C)C)[C@H]2C[C@@H]1O | 5.97 | 24 | 19.9 | 9.31 | 6.85 | 9.79 | 0.9 | 6.96 | 
C=C1[C@@H](OC(C)=O)C[C@@H]2[C@](C)(CO[Si](C)(C)C(C)(C)C)[C@H](OC(C)=O)CC[C@@]2(C)[C@@H]1C[C@@H](Nc1ccc(OC)cc1)C1=CCOC1=O | 4.56 | 5.2 | 5.6 | 5.37 | 4.81 | 5.63 | 4.03 | 4.28 | 
